Reference: paper PMC6080416, “Spectroscopic Studies as a Toolbox for Biophysical and Chemical Characterization of Lipid-Based Nanotherapeutics” (Frontiers in Chemistry, 2018)

Assay: Fluorescence quenching of n-AS probes in MLVs of EPC (drug location)
Assay type: physicochemical
Conditions: MLVs of EPC labeled with n-AS probes
Procedure: Three independent experiments were carried out.
This type of fluorescence quenching can be described by the Stern-Volmer linear plots (Equation 5 and Figures 7A,B) where the fluorescence emission intensities of the labeled nanocarrier in the absence (I0) and in the presence (I) of the quencher (drugs) are plotted against the quencher concentration [Q] and it is possible to obtain linear relations in which the intercept is zero and the slope corresponds to Stern-Volmer constant, KSVapp (Lakowicz, [2014]):
The Stern-Volmer plots of the fluorescence quenching provoked by increasing concentrations of Indomethacin are not linear and present positive deviations (Figure 7C). Positive deviations from the Stern-Volmer equation are often observed when the extent of quenching is large and these deviations from linearity indicate that the quenching mechanism cannot be explained solely by a collisional mechanism (Lakowicz, [2014]). There is an apparent static quenching component caused by the close proximity of deactivating drug and fluorophore at excitation moment. The quenching is still collisional, but the existence of fluorophores and quenchers located very close to each other causes an immediate fluorescence deactivation and therefore the fluorophore and the drug appear to form non-fluorescent complexes (Lakowicz, [2014]). This type of fluorescence quenching is usually interpreted in terms of a “sphere of action” (Equation 7) within which the possibility of deactivation is equal to unity (Lakowicz, [2014]).
(7) I0/I=(1+KSVapp[Q])e^[Q]Vapp
By representing graphically I0/(Ie^[Q]Vapp) as a function of [Q], linear relations were obtained in which the slope corresponds to KSVapp (Figure 7D). Thus, Indomethacin quenching efficiency followed approximately the same order as that obtained for Acemetacin: 2-AS < 6-AS < 9-AS < 12-AS.

Structure (SMILES)	Drug location within the lipid nanocarrier inferred from Kqapp
COc1ccc2c(c1)c(CC(=O)OCC(=O)O)c(C)n2C(=O)c1ccc(Cl)cc1 [Acemetacin]	can reach an inner location at the lipid nanocarrier
COc1ccc2c(c1)c(CC(=O)O)c(C)n2C(=O)c1ccc(Cl)cc1 [Indomethacin]	able to reach a more inner location within the lipid nanocarrier
Cc1ccc(C(=O)c2ccc(CC(=O)O)n2C)cc1 [Tolmetin]	preferential location of Tolmetin at the polar headgroup region of the lipid nanocarriers
